# Laboratory results published in patent US12364702B2, “Highly active sting protein agonist compound” (ADLAI NORTYE BIOPHARMA CO., LTD., priority 2018, dated 2025).
# Columns and labels:
# Type in all cases: cell-based
# STING = STING (Homo sapiens, UniProt Q86WV6); test: IFN-β secretion from THP1 by STING activation (hIFNβ ELISA); settings: THP1 cells, 24 h incubation, IFN-β in supernatant, top dose set according to solubility; for EC50: read-out: hIFNβ ELISA (EC50)
# Experimental: In this assay, activation of STING by compounds was evaluated by detecting their ability to stimulate the secretion of IFN-β (interferon-beta) from THP1. THP1 was purchased from National Collection of Authenticated Cell Cultures (Cat #TCHu 57). The top dose of compounds was setted according to their solubility. First, Compounds were 3 times diluted with medium, 8-dose points in total. The final DMSO concentration was 0.2%. THP1 during the logarithmic phase was resuspended to 2×10^6 cells/ml in assay medium. The THP1-cell suspension was dispensed into a 96-well U bottom plate containing 50 ul of compound diluted in medium. After 24 h incubation at 37° C., 5% CO2, the supernatant was collected. The concentration of IFN-β in the supernatant was measured using a human IFNβ ELISA KIT (R&D, DY814-05). The data was fitted with GraphPad Prism or XLfit to calculate EC50 values.
# STING WT variant = target: T1, STING WT variant (Homo sapiens, UniProt Q86WV6); test: SEAP reporter assay in HEK-Blue ISG KO-STING cells transfected with STING WT variant (Method 1); settings: 24 h, SEAP signal vs 0.5% DMSO
# T1 construct: host or cells: HEK-Blue ISG KO-STING cells (Invivogen, hkb-kostg)
# From the text: (§1) Activation of STING can be determined using a SEAP reporter assay in HEK-Blue™ ISG KO-STING cells (Invivogen, cat #hkb-kostg) transfected with plasmids expressing STING variants (WT & HAQ) (referred to WO2017/175147A1). STING variants (WT & HAQ) vector were constructed based on STING-232H vector (Origene, RC208418). GFP vector (VT2069) was bought from Youbio. The detailed protocol as follows: HEK-Blue™ ISG KO-STING cells were harvest and seeding into 96 well plate, the final cell number was 0.8×10^5 cells/well. Transfections were prepared using Lipofectamine 2000 (Invitrogen, Cat #11668-027) following the manufacturer's instructions (Lipo2000/DNA=1/10), 20 ul of transfection suspension containing 1 ng STING vector was added to cell culture plate and incubated at 37° C., 5% CO2 for 24 hours. After 24 hours' incubation, compounds were added at proper concentration, and the final DMSO concentration was 0.5%. After 24 h incubation, the supernatant was collected to detect SEAP signal using Great EscAPe SEAP chemiluminescence KIT (Clontech, cat #631738) and cells were collected to detect cell viability using CellTiter-Glo Luminescent Cell Viability Assay (Promega, cat #G7573) following the manufacturer's instructions. The data were described by the ratio of the stimulating signal of compounds to 0.5% DMSO.
# STING HAQ variant = target: T2, STING HAQ variant (Homo sapiens, UniProt Q86WV6, G230A/R293Q/R71H); test: SEAP reporter assay in HEK-Blue ISG KO-STING cells transfected with STING HAQ variant (Method 1); settings: 24 h, SEAP signal vs 0.5% DMSO
# T2 construct: host or cells: HEK-Blue ISG KO-STING cells (Invivogen, hkb-kostg)
# T2 sequence (Q86WV6 whole entry R71H/G230A/R293Q): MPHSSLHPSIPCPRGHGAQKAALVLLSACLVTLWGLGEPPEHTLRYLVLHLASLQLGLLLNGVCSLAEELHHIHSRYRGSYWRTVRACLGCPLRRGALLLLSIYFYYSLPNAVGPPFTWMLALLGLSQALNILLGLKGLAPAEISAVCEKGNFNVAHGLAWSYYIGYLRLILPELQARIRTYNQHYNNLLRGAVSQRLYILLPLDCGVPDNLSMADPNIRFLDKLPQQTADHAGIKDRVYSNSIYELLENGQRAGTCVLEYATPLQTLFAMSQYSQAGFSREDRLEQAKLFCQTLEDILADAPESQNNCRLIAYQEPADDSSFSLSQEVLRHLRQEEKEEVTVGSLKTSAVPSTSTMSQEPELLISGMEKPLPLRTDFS
# From the text: as §1
# [1] = 1 ng STING vector, compound 2.5 uM
# [2] = 1 ng STING vector, compound 5 uM
# Sequence of STING (Q86WV6 whole entry): as the sequence (Q86WV6 whole entry R71H/G230A/R293Q) above, with H71R, A230G, Q293R counted along it
Structure (SMILES),EC50 (STING) [µM],Fold change related to DMSO control WT (STING WT variant; [1]),Fold change related to DMSO control HAQ (STING HAQ variant; [2]),"hIFNβ ELISA (EC50, μM) (STING)",Fold change related to DMSO control WT (STING WT variant; compound 57.9 uM),Fold change related to DMSO control HAQ (STING HAQ variant; compound 57.9 uM)
"CCn1nc(C)cc1C(=O)Nc1nc2cc(C(N)=O)cc(OCCCOC)c2n1CCC[C@H]1COc2cc(C(N)=O)cc3nc(NC(=O)c4c(Br)c(C)nn4CC)n1c23 [Example 9, (S)-2-(4-bromo-1-ethyl-3-methyl-1H-pyrazole-5-carboxamido)-3-(3-(5-carbamoyl-2-(1-ethyl-3-methyl-1H-pyrazole-5-carboxamido)-7-(3-methoxypropoxy)-1H-benzo[d]imidazol-1-yl)propyl)-3,4-dihydro-5-oxa-1,2a-diazaacenaphthylene-7-carboxamide]",2.6,2.27,14.14,,,
"COCCCOc1cc(C(N)=O)cc2nc(NC(=O)c3cc(C)nn3CCF)n(CCC[C@H]3COc4cc(C(N)=O)cc5nc(NC(=O)c6cc(C)nn6CCF)n3c45)c12 [Example 10, (S)-3-(3-(5-carbamoyl-2-(1-(2-fluoroethyl)-3-methyl-1H-pyrazole-5-carboxamido)-7-(3-methoxypropoxy)-1H-benzo[d]imidazol-1-yl)propyl)-2-(1-(2-fluoroethyl)-3-methyl-1H-pyrazole-5-carboxamido)-3,4-dihydro-5-oxa-1,2a-diazaacenaphthylene-7-carboxamide]",,1.98,16.63,inactive,,
"CCn1nc(C)cc1C(=O)Nc1nc2cc(C(N)=O)cc(OCCCNC(=O)CN3CCNCC3)c2n1CCC[C@H]1COc2cc(C(N)=O)cc3nc(NC(=O)c4cc(C)nn4CC)n1c23 [Example 34, (S)-3-(3-(6-carbamoyl-2-(1-ethyl-3-methyl-1H-pyrazole-5-carboxamido)-4-(3-(2-(piperazin-1-yl)acetamido)propoxy)-1H-benzo[d]imidazol-1-yl)propyl)-2-(1-ethyl-3-methyl-1H-pyrazole-5-carboxamido)-3,4-dihydro-5-oxa-1,2a-diazaacenaphthylene-7-carboxamide]",9.1,1.51,6.51,,,
CCn1nc(C)cc1C(=O)Nc1nc2cc(C(N)=O)cc(OCCCNC(=O)C[C@H]3COCCN3)c2n1CCC[C@H]1COc2cc(C(N)=O)cc3nc(NC(=O)c4cc(C)nn4CC)n1c23 [Example 33],12,1.88,16.31,,,
"CCn1nc(C)cc1C(=O)Nc1nc2cc(C(N)=O)cc(OCCCO)c2n1CCC[C@H]1COc2cc(C(N)=O)cc3nc(NC(=O)c4cc(C)nn4CC)n1c23 [Example 6, (S)-3-(3-(5-carbamoyl-2-(1-ethyl-3-methyl-1H-pyrazole-5-carboxamido)-7-(3-hydroxypropoxy)-1H-benzo[d]imidazol-1-yl)propyl)-2-(1-ethyl-3-methyl-1H-pyrazole-5-carboxamido)-3,4-dihydro-5-oxa-1,2a-diazaacenaphthylene-7-carboxamide]",4.8,,,,1.71,32.88
"CCn1nc(C)c(Br)c1C(=O)Nc1nc2cc(C(N)=O)cc3c2n1[C@@H](CCCn1c(NC(=O)c2cc(C)nn2CCF)nc2cc(C(N)=O)cc(OCCCOC)c21)CO3 [Example 13, (S)-2-(4-bromo-1-ethyl-3-methyl-1H-pyrazole-5-carboxamido)-3-(3-(5-carbamoyl-2-(1-(2-fluoroethyl)-3-methyl-1H-pyrazole-5-carboxamido)-7-(3-methoxypropoxy)-1H-benzo[d]imidazol-1-yl)propyl)-3,4-dihydro-5-oxa-1,2a-diazaacenaphthylene-7-carboxamide]",> 3,1.79,26.64,,,
